From ChEMBL document CHEMBL6109054, “Development of novel GI-centric prostaglandin E2 receptor type 4 (EP4) agonist prodrugs as treatment for ulcerative colitis and other intestinal inflammatory diseases” (Bioorg Med Chem Lett, 2025)
One block for each compound: values may come before it. Active and inactive are the calls of the source. The rule behind the calls is not given here.

Legend:
[1] = Drug uptake in mouse blood administered as rectal dose and measured after 1 hrs; assay type: ADME, tissue-based; details: route rec, read-out: Ct
[2] = Elimination half-life in rat; assay type: ADME; details: in vivo, read-out: beta t1/2
[3] = Toxicity in rectal dosed mouse assessed as body weight loss administered for 8 days; assay type: organism-based; details: in vivo, other, 192 h, route rec, time 8 day
[4] = Prodrug conversion in mouse blood assessed as 7(R)-(2-((R,E)-4,4-difluoro-3-hydroxy-4-phenyl)but-1-en-1-yl)-5-oxopyrrolidin-1-yl)heptanoic acid formation administered orally with 1 mg/kg equivalent dose of active drug and measured after 0.5 hrs by LC/MS/MS analysis; assay type: ADME, organism-based; details: in vivo, po
[5] = Prodrug conversion in mouse blood assessed as concentration of 7(R)-(2-((R,E)-4,4-difluoro-3-hydroxy-4-phenyl)but-1-en-1-yl)-5-oxopyrrolidin-1-yl)heptanoic acid administered as rectal dose and measured after 1 hr; assay type: ADME, tissue-based; details: other, route rec
[6] = Prodrug conversion in mouse blood assessed as 7(R)-(2-((R,E)-4,4-difluoro-3-hydroxy-4-phenyl)but-1-en-1-yl)-5-oxopyrrolidin-1-yl)heptanoic acid formation administered orally with 1 mg/kg equivalent dose of active drug and measured for 1 to 4 hrs by LC/MS/MS analysis; assay type: ADME, organism-based; details: in vivo, po, time 1-4 hrs
[7] = Prodrug conversion in human plasma assessed as 7(R)-(2-((R,E)-4,4-difluoro-3-hydroxy-4-phenyl)but-1-en-1-yl)-5-oxopyrrolidin-1-yl)heptanoic acid release by measuring half-life; assay type: ADME, cell-free
[8] = Prodrug conversion in mouse gut assessed as 7(R)-(2-((R,E)-4,4-difluoro-3-hydroxy-4-phenyl)but-1-en-1-yl)-5-oxopyrrolidin-1-yl)heptanoic acid formation by measuring half-life at 100 uM; assay type: ADME, tissue-based
[9] = Prodrug release in PBS buffer at pH 2 assessed as release of 7(R)-(2-((R,E)-4,4-difluoro-3-hydroxy-4-phenyl)but-1-en-1-yl)-5-oxopyrrolidin-1-yl)heptanoic acid by measuring half-life; assay type: ADME
[10] = Prodrug conversion in mouse ileum assessed as 7(R)-(2-((R,E)-4,4-difluoro-3-hydroxy-4-phenyl)but-1-en-1-yl)-5-oxopyrrolidin-1-yl)heptanoic acid formation by measuring half-life; assay type: ADME, tissue-based; details: in vivo
Mus musculus [11] = experiment: Anti-inflammatory activity in rectal dosed DSS-induced colitis mouse model assessed as change in disease activity index (DAI) treated as prodrug for 8 days; assay type: functional, organism-based; details: route rec, time 8.0 day
[12] = Prodrug conversion in mouse serum assessed as 7(R)-(2-((R,E)-4,4-difluoro-3-hydroxy-4-phenyl)but-1-en-1-yl)-5-oxopyrrolidin-1-yl)heptanoic acid release by measuring half-life; assay type: ADME, cell-free
[13] = Stability of compound in PBS buffer at pH 9 at 200 ug/mL measured over 170 hrs; assay type: physicochemical; details: pH 9, 170 h, at 200 µg/mL
[14] = Stability of compound in PBS buffer at pH 7.2 at 200 ug/mL measured over 170 hrs; assay type: physicochemical; details: pH 7.2, 170 h, at 200 µg/mL
[15] = Prodrug conversion in mouse colon assessed as 7(R)-(2-((R,E)-4,4-difluoro-3-hydroxy-4-phenyl)but-1-en-1-yl)-5-oxopyrrolidin-1-yl)heptanoic acid formation by measuring half-life; assay type: ADME, tissue-based; details: in vivo
Mus musculus [16] = experiment: Anti-inflammatory activity in rectal dosed DSS-induced mouse model assessed as reduction in epithelial cell damage treated as prodrug for 8 days; assay type: functional, organism-based; details: route rec, time 8.0 day
Mus musculus [17] = experiment: Anti-inflammatory activity in rectal dosed DSS-induced colitis mouse model assessed as increase in colon length treated as prodrug for 8 days; assay type: functional, organism-based; details: route rec, time 8.0 day
[18] = Prodrug conversion in blood of DSS-induced colitis mouse model assessed as 7(R)-(2-((R,E)-4,4-difluoro-3-hydroxy-4-phenyl)but-1-en-1-yl)-5-oxopyrrolidin-1-yl)heptanoic acid formation administered as rectal dose and measured after 4 days by LC/MS/MS analysis; assay type: ADME, tissue-based; details: other, 96 h, route rec, time 4 day
[19] = Prodrug conversion in blood of DSS-induced colitis mouse model assessed as 7(R)-(2-((R,E)-4,4-difluoro-3-hydroxy-4-phenyl)but-1-en-1-yl)-5-oxopyrrolidin-1-yl)heptanoic acid formation administered as rectal dose and measured after 7 days by LC/MS/MS analysis; assay type: ADME, tissue-based; details: other, 168 h, route rec, time 7 day
Mus musculus [20] = experiment: Anti-inflammatory activity in rectal dosed DSS-induced mouse model assessed as reduction in inflammatory cell infiltration treated as prodrug for 8 days; assay type: functional, organism-based; details: route rec, time 8.0 day

SMILES: O=C1CC[C@H](/C=C/[C@@H](O)C(F)(F)c2ccccc2)N1CCCCCCc1nnn[nH]1
- half-life [2]: > 24 h

SMILES: CCCC(O[C@H](/C=C/[C@H]1CCC(=O)N1CCCCCCC(=O)OCC)C(F)(F)c1ccccc1)OP(=O)(O)O (stereo partly specified)
- t1/2 [7]: 12.7 h
- t1/2 [8]: < 0.083 h

SMILES: CCOC(=O)CCCCCCN1C(=O)CC[C@@H]1/C=C/[C@@H](OC(OP(=O)(O)O)c1ccccc1)C(F)(F)c1ccccc1 (stereo partly specified)
- t1/2 [7]: 45 h
- t1/2 [8]: 0.667 h

Further lines, with some results ahead:

- concentration at 1 h [1]: 35.8 ng/mL
- half-life [2]: < 1 h
SMILES: O=C(O)CCCCCCN1C(=O)CC[C@@H]1/C=C/[C@@H](O)C(F)(F)c1ccccc1
- Activity [3]: Non-toxic

- Drug metabolism [4]: metabolite_detected
- Drug metabolism [5]: 2.6 ng/mL
- Drug metabolism [6]: metabolite_detected
SMILES: O=C(O)CCCCCCN1C(=O)CC[C@@H]1/C=C/[C@@H](OC(OP(=O)(O)O)c1ccccc1)C(F)(F)c1ccccc1 (stereo partly specified)

- t1/2 [7]: 10.4 h
- t1/2 [8]: < 0.083 h
SMILES: CCOC(=O)CCCCCCN1C(=O)CC[C@@H]1/C=C/[C@@H](OC(C)OP(=O)(O)O)C(F)(F)c1ccccc1 (stereo partly specified)

- t1/2 [9]: ~ 300 hr
- t1/2 [10]: 9 min
- t1/2 [12]: 3.3 h
- Stability [13]: Stable
- Stability [14]: Stable
- Drug metabolism [4]: metabolite_detected
- Drug metabolism [5]: 5.4 ng/mL
- t1/2 [15]: 0.333 h
- t1/2 [7]: 1.5 h
- Drug metabolism [18]: 1.5 ng/mL
- t1/2 [8]: < 0.083 h
- Drug metabolism [19]: 1.5 ng/mL
- Drug metabolism [6]: metabolite_detected
SMILES: O=C(O)CCCCCCN1C(=O)CC[C@@H]1/C=C/[C@@H](OCOP(=O)(O)O)C(F)(F)c1ccccc1
- Activity (Mus musculus [11]): Not active; Little Or No Change Observed
- Activity (Mus musculus [16]): Active
- Activity (Mus musculus [17]): Active
- Activity [3]: Non-toxic
- Activity (Mus musculus [20]): Active
